Data as given in patent US20220402950A1, “SUBSTITUTED BENZIMIDAZOLES AS PAD4 INHIBITORS” (BRISTOL-MYERS SQUIBB COMPANY, priority 2018, published 2022).

target: human PAD4 (hPAD4) (Homo sapiens, UniProt Q9UM07); assay: RFMS Human PAD4 Functional Assay; format: biochemical; conditions: hPAD4 RFMS IC50, human PAD4, rapid-fire mass spectrum (RFMS) assay; 5 nM hPAD4, 250 μM BAEE
Description: RFMS Human PAD4 Functional Assay:
Compounds were solubilized in 100% DMSO to achieve a 10 mM compound concentration. Compound stock solutions were stored at RT. A series of dilutions were prepared in DMSO and mixed 8 times with 20 μL mixing volume. Final top concentration of compound in the assay is 50 μM.
0.13 μL of compound solution was added to 13 μL of 10 nM PAD4 in assay buffer. After 30 min 13 μl of 500 μM of BAEE was added in 25 mM hepes, pH 7.5, 5 mM NaCl, 1 mM DTT, 0.2 mg/ml BSA, 0.01% CHAPS, 50 μM Calcium, 5 μM TPEN was added and the reaction incubated for 90 min at 37° C. The enzymatic reaction was quenched by addition of 15 μl of 6.1N TCA, 100% Final Concentration is 20%, 35 μl of 8.5 mM phenyl glyoxal (final concentration 4 mM) is then added and the reaction is incubated for 30 min at 37° C.
After 30 minutes the plates are spun down to remove all precipitate. The enzyme reaction was quenched with an equal volume of methanol containing internal standard (modified citrulline). Samples were loaded onto the Rapid Fire RF300 system (Agilent) wherein they were first sipped for 1000 ms and then directly loaded to a C18 separations cartridge using a mixture of acetonitrile containing 0.01% formic acid for 3000 ms desalting. The flow rate of the mobile phase was 1.5 ml/min.
The dwell time for each transition was set at 200 ms, and the ESI voltage was used at 5500 with a source temperature of 400° C. Extracted ion peaks for each transition were integrated using the Rapid Fire Integrator software. Peak area of analyte was normalized with internal standard.).

Chain of human PAD4 (hPAD4) (Q9UM07 whole entry): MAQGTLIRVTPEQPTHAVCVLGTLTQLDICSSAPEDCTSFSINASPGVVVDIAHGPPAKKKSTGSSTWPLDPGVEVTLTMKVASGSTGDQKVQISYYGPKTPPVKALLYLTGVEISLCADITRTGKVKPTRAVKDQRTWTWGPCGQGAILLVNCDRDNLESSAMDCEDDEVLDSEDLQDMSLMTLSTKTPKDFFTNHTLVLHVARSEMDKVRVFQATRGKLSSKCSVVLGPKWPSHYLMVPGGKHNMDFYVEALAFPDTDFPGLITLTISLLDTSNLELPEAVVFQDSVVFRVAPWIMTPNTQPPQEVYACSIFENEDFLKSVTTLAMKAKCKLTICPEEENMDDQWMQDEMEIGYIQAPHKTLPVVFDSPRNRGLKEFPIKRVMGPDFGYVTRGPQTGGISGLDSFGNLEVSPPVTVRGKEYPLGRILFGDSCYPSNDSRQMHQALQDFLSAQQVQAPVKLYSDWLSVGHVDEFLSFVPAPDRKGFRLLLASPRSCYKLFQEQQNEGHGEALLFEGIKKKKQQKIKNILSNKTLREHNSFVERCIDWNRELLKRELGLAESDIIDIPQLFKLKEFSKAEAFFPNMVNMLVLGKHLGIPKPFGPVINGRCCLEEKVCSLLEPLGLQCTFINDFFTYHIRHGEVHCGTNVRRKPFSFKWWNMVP

Row | IC50 | SMILES
1 | 42 nM | COc1cc(C(=O)N2C[C@H]3CC[C@@H]2[C@@H]3N)cc2nc(-c3cc4cccc(C5CN(C)C5)c4n3CC3CC3)n(C)c12 [Example 22, (1R,4R,7R)-2-{2-[1-(cyclopropylmethyl)-7-(1-methylazetidin-3-yl)-1H-indol-2-yl]-7-methoxy-1-methyl-1H-1,3-benzodiazole-5-carbonyl}-2-azabicyclo[2.2.1]heptan-7-amine]
2 | 120 nM | COc1cc(C(=O)N2C[C@H]3CC[C@@H]2[C@@H]3N)cc2nc(-c3cc4cccc(CCN5CCOC5=O)c4n3CC3CC3)n(C)c12 [Example 23, 3-[2-(2-{5-[(1R,4R,7R)-7-amino-2-azabicyclo[2.2.1]heptane-2-carbonyl]-7-methoxy-1-methyl-1H-1,3-benzodiazol-2-yl}-1-(cyclopropylmethyl)-1H-indol-7-yl)ethyl]-1,3-oxazolidin-2-one]
3 | 61 nM | COc1cc(C(=O)N2C[C@H]3CC[C@@H]2[C@@H]3N)cc2nc(-c3cc4cccc(C5CCC(O)CC5)c4n3CC3CC3)n(C)c12 (stereo partly drawn) [Example 24, 4-(2-{5-[(1R,4R,7R)-7-amino-2-azabicyclo[2.2.1]heptane-2-carbonyl]-7-methoxy-1-methyl-1H-1,3-benzodiazol-2-yl}-1-(cyclopropylmethyl)-1H-indol-7-yl)cyclohexan-1-ol]
4 | 63 nM | COc1cc(C(=O)N2C[C@H]3CC[C@@H]2[C@@H]3N)cc2nc(-c3cc4cccc(C5COC5)c4n3CC3CC3)n(C)c12 [Example 25, (1R,4R,7R)-2-{2-[1-(cyclopropylmethyl)-7-(oxetan-3-yl)-1H-indol-2-yl]-7-methoxy-1-methyl-1H-1,3-benzodiazole-5-carbonyl}-2-azabicyclo[2.2.1]heptan-7-amine]
5 | 41 nM | COc1cc(C(=O)N2C[C@H]3CC[C@@H]2[C@@H]3N)cc2nc(-c3cc4cccc(CC5CNC5)c4n3CC3CC3)n(C)c12 [Example 26, (1R,4R,7R)-2-(2-{7-[(azetidin-3-yl)methyl]-1-(cyclopropylmethyl)-1H-indol-2-yl}-7-methoxy-1-methyl-1H-1,3-benzodiazole-5-carbonyl)-2-azabicyclo[2.2.1]heptan-7-amine]
6 | 74 nM | COc1cc(C(=O)N2C[C@H]3CC[C@@H]2[C@@H]3N)cc2nc(-c3cc4cccc(CCCS(C)(=O)=O)c4n3CC3CC3)n(C)c12 [Example 27, (1R,4R,7R)-2-{2-[1-(cyclopropylmethyl)-7-(3-methanesulfonylpropyl)-1H-indol-2-yl]-7-methoxy-1-methyl-1H-1,3-benzodiazole-5-carbonyl}-2-azabicyclo[2.2.1]heptan-7-amine]
7 | 67 nM | COc1cc(C(=O)N2C[C@H]3CC[C@@H]2[C@@H]3N)cc2nc(-c3cc4cccc(C5CCN(C(=O)OCc6ccccc6)C5)c4n3CC3CC3)n(C)c12 (stereo partly drawn) [Example 28, benzyl 3-(2-{5-[(1R,4R,7R)-7-amino-2-azabicyclo[2.2.1]heptane-2-carbonyl]-7-methoxy-1-methyl-1H-1,3-benzodiazol-2-yl}-1-(cyclopropylmethyl)-1H-indol-7-yl)pyrrolidine-1-carboxylate]
8 | 56 nM | COc1cc(C(=O)N2C[C@H]3CC[C@@H]2[C@@H]3N)cc2nc(-c3cc4cccc(CCn5cncn5)c4n3CC3CC3)n(C)c12 [Example 29, (1R,4R,7R)-2-{2-[1-(cyclopropylmethyl)-7-[2-(1H-1,2,4-triazol-1-yl)ethyl]-1H-indol-2-yl]-7-methoxy-1-methyl-1H-1,3-benzodiazole-5-carbonyl}-2-azabicyclo[2.2.1]heptan-7-amine]
9 | 80 nM | COc1cc(C(=O)N2C[C@H]3CC[C@@H]2[C@@H]3N)cc2nc(-c3cc4cccc(C5CCS(=O)(=O)C5)c4n3CC3CC3)n(C)c12 (stereo partly drawn) [Example 30, ((1R,4R,7R)-7-amino-2-azabicyclo[2.2.1]heptan-2-yl)(2-(1-(cyclopropylmethyl)-7-(1,1-dioxidotetrahydrothiophen-3-yl)-1H-indol-2-yl)-7-methoxy-1-methyl-1H-benzo[d]imidazol-5-yl)methanone]
